# Reference: ChEMBL document CHEMBL1146673, “Inhibition of ICAM-1/LFA-1-mediated heterotypic T-cell adhesion to epithelial cells: design of ICAM-1 cyclic peptides” (2004)
# System: T-cell
# Experiment: Ability of compound to inhibit the T-cell adhesion at 200 uM in cell adhesion assay
# Type: functional, Homo sapiens
row,Substance,T-cell binding [%]
1,H-AILPRG-OH,53
2,H-ILPRGG-OH,46
3,H-KVILPR-OH,49
4,H-LPRGGS-OH,37
5,H-PRGGSV-OH,25
6,H-PSKVIL-OH,44
7,H-VALPRG-OH,71
8,H-VIAPRG-OH,46
9,H-VILARG-OH,62
10,H-VILPRA-OH,68
11,H-VILPRG-OH,32
